The numbers were not newly measured in US10675240B2 (priority 2014, dated 2020), which cites them from elsewhere.

The conditions of this data set: background statement.

For the compound `CC1=CC[C@H]2C[C@@H]1C2(C)C` [α-Pinene, (1S,5S)-2,6,6-Trimethylbicyclo[3.1.1]hept-2-ene], the human pulmonary uptake is given as 60%.
